What was measured:
[1] = Selectivity index, ratio of CC50 for cytotoxicity against African green monkey Vero 76 infected with Zika virus assessed as reduction in cell viability by visual analysis to EC50 for antiviral activity against Zika virus infected in African green monkey Vero 76 cells assessed as reduction in virus-induced cytopathic effect by visual analysis; type: toxicity, cell-based; details: Vero 76 cells infected with Zika virus, read-out: Ratio CC50/EC50
[2] = Cytotoxicity against African green monkey Vero 76 cells infected with Rift valley fever virus assessed as reduction in cell viability by visual analysis; type: toxicity, cell-based; details: chlorocebus sabaeus
[3] = (§1) Selectivity index, ratio of CC50 for cytotoxicity against human Huh-7 cells infected with DENV-2 assessed as reduction in cell viability by visual analysis to EC50 for antiviral activity against DENV-2 infected in human Huh-7 cells assessed as reduction in virus-induced cytopathic effect by visual analysis; type: toxicity, cell-based; details: read-out: Ratio CC50/EC50
[4] = as §1, with “dog MDCK” for “human Huh-7”, “Influenza A virus H1N1” for “DENV-2”; type: toxicity, cell-based; details: read-out: Ratio CC50/EC50
[5] = test system: Middle East respiratory syndrome-related coronavirus; experiment: Antiviral activity against MERS-CoV infected in African green monkey Vero 76 cells assessed as reduction in virus-induced cytopathic effect measured after 15 to 30 mins by visual analysis; type: functional, organism-based
[6] = Cytotoxicity against dog MDCK cells infected with Influenza A virus H1N1 assessed as reduction in cell viability by visual analysis; type: toxicity, cell-based, Canis lupus familiaris
Influenza A virus [7] = experiment: Antiviral activity against Influenza A virus H1N1 infected in dog MDCK cells assessed as inhibition of viral replication measured after 15 to 30 mins by neutral red dye based analysis; type: functional, organism-based
dengue virus type 2 [8] = experiment: Antiviral activity against DENV-2 infected in human Huh-7 cells assessed as reduction in virus-induced cytopathic effect measured after 15 to 30 mins by neutral red based analysis; type: functional, organism-based
[9] = Cytotoxicity against African green monkey Vero E6 cells infected with Lymphocytic choriomeningitis virus assessed as reduction in cell viability; type: toxicity, cell-based, Vero C1008; details: chlorocebus sabaeus
[10] = Selectivity index, ratio of CC50 for cytotoxicity against African green monkey Vero 76 cells infected with Rift valley fever virus assessed as reduction in cell viability by neutral red dye based analysis to EC50 for antiviral activity against Rift valley fever virus infected in African green monkey Vero 76 cells assessed as reduction in virus-induced cytopathic effect by neutral red dye based analysis; type: toxicity; details: read-out: Ratio CC50/EC50
Rift Valley fever virus [11] = experiment: Antiviral activity against Rift valley fever virus infected in African green monkey Vero 76 cells assessed as reduction in virus-induced cytopathic effect measured after 15 to 30 mins by visual analysis; type: functional, organism-based
[12] = as §1, with “neutral red” for “visual”; type: toxicity, cell-based; details: read-out: Ratio CC50/EC50
Zika virus [13] = experiment: Antiviral activity against Zika virus infected in African green monkey Vero 76 cells assessed as reduction in virus-induced cytopathic effect measured after 15 to 30 mins by visual analysis; type: functional, organism-based
[14] = Cytotoxicity against African green monkey Vero 76 cells infected with MERS-CoV assessed as reduction in cell viability by visual analysis; type: toxicity, cell-based; details: chlorocebus sabaeus
Zika virus [15] = experiment: Antiviral activity against Zika virus infected in African green monkey Vero 76 cells assessed as reduction in virus-induced cytopathic effect measured after 15 to 30 mins by neutral red based spectrophotometric analysis; type: functional, organism-based
[16] = (§2) Selectivity index, ratio of CC50 for cytotoxicity against dog MDCK cells infected with Influenza A virus H7N9 assessed as reduction in cell viability by neutral red dye based analysis to EC50 for antiviral activity against Influenza A virus H7N9 infected in dog MDCK cells assessed as inhibition of viral replication by neutral red dye based analysis; type: toxicity; details: read-out: Ratio CC50/EC50
[17] = Cytotoxicity against African green monkey Vero 76 cells infected with Zika virus assessed as reduction in cell viability by neutral red dye based assay; type: toxicity; details: chlorocebus sabaeus
[18] = Cytotoxicity against dog MDCK cells infected with Influenza A virus H1N1 assessed as reduction in cell viability by neutral red dye based assay; type: toxicity, Canis lupus familiaris
Yellow fever virus [19] = experiment: Antiviral activity against Yellow fever virus infected in human Huh-7 cells assessed as reduction in virus-induced cytopathic effect measured after 15 to 30 mins by visual analysis; type: functional, organism-based; details: Yellow fever virus, Huh-7; read-out: EC50
[20] = test system: Middle East respiratory syndrome-related coronavirus; experiment: Antiviral activity against MERS-CoV infected in African green monkey Vero 76 cells assessed as reduction in virus-induced cytopathic effect measured after 15 to 30 mins by neutral red dye based analysis; type: functional, organism-based
Rift Valley fever virus [21] = experiment: Antiviral activity against Rift valley fever virus infected in African green monkey Vero 76 cells assessed as reduction in virus-induced cytopathic effect measured after 15 to 30 mins by neutral red dye based analysis; type: functional, organism-based
Influenza A virus [22] = experiment: Antiviral activity against Influenza A virus H1N1 infected in dog MDCK cells assessed as reduction in virus-induced cytopathic effect measured after 15 to 30 mins by visual analysis; type: functional, organism-based
Huh-7 [23] = experiment: Cytotoxicity against human Huh-7 cells infected with DENV-2 assessed as reduction in cell viability by neutral red dye based assay; type: functional
[24] = Selectivity index, ratio of CC50 for cytotoxicity against African green monkey Vero 76 cells infected with Punta Toro virus assessed as reduction in cell viability by visual analysis to EC50 for antiviral activity against Punta Toro virus infected in African green monkey Vero 76 cells assessed as reduction in viral replication by visual analysis; type: toxicity, cell-based; details: read-out: Ratio CC50/EC50
dengue virus type 2 [25] = experiment: Antiviral activity against DENV-2 infected in human Huh-7 cells assessed as reduction in virus-induced cytopathic effect measured after 15 to 30 mins by visual analysis; type: functional, organism-based
Influenza A virus [26] = experiment: Antiviral activity against Influenza A virus H1N1 infected in dog MDCK cells assessed as reduction in virus-induced cytopathic effect measured after 15 to 30 mins by neutral red based analysis; type: functional, organism-based
Huh-7 [27] = experiment: Cytotoxicity against human Huh-7 cells infected with Yellow fever virus assessed as reduction in cell viability by neutral red dye based assay; type: functional
Huh-7 [28] = experiment: Cytotoxicity against human Huh-7 cells infected with Yellow fever virus assessed as reduction in cell viability by visual assay; type: functional
[29] = (§3) Selectivity index, ratio of CC50 for cytotoxicity against African green monkey Vero 76 cells infected with Rift valley fever virus assessed as reduction in cell viability by visual analysis to EC50 for antiviral activity against Rift valley fever virus infected in African green monkey Vero 76 cells assessed as reduction in virus-induced cytopathic effect by visual analysis; type: toxicity, cell-based; details: read-out: Ratio CC50/EC50
Yellow fever virus [30] = experiment: Antiviral activity against Yellow fever virus infected in human Huh-7 cells assessed as reduction in virus-induced cytopathic effect measured after 15 to 30 mins by neutral red based analysis; type: functional, organism-based
[31] = Selectivity index, ratio of CC50 for cytotoxicity against African green monkey Vero 76 cells infected with Zika virus assessed as reduction in cell viability by neutral red dye based analysis to EC50 for antiviral activity against Zika virus infected in African green monkey Vero 76 cells assessed as reduction in virus-induced cytopathic effect by neutral red based spectrophotometric analysis; type: toxicity; details: read-out: Ratio CC50/EC50
[32] = as §3, with “Valley” for “valley”, “viability” for “viability by visual analysis”, “EC90” for “EC50”, “viral yield” for “virus-induced cytopathic effect by visual analysis”; type: toxicity, cell-based
Huh-7 [33] = experiment: Cytotoxicity against human Huh-7 cells infected with DENV-2 assessed as reduction in cell viability by visual analysis; type: functional
[34] = as §1, with “Yellow fever virus” for “DENV-2”; type: toxicity, cell-based; details: read-out: Ratio CC50/EC50
[35] = Selectivity index, ratio of CC50 for cytotoxicity against human Huh-7 cells infected with Yellow fever virus assessed as reduction in cell viability by neutral red dye based assay to EC50 for antiviral activity against Yellow fever virus infected in human Huh-7 cells assessed as reduction in virus-induced cytopathic effect by neutral red based analysis; type: toxicity; details: read-out: Ratio CC50/EC50
[36] = Cytotoxicity against African green monkey Vero 76 cells infected with Zika virus assessed as reduction in cell viability by visual analysis; type: toxicity, cell-based; details: chlorocebus sabaeus
[37] = as §2, with “H1N1” for “H7N9”, “reduction in virus-induced cytopathic effect” for “inhibition of viral replication”; type: toxicity; details: read-out: Ratio CC50/EC50
[38] = Cytotoxicity against African green monkey Vero 76 cells infected with Rift valley fever virus assessed as reduction in cell viability by neutral red dye based analysis; type: toxicity; details: chlorocebus sabaeus
[39] = Cytotoxicity against African green monkey Vero 76 cells infected with MERS-CoV assessed as reduction in cell viability by neutral red dye based analysis; type: toxicity; details: chlorocebus sabaeus

Compound | selectivity ratio [1] | CC50 [2] | selectivity ratio [3] | selectivity ratio [4] | EC50 [5] | CC50 [6] | EC50 (dengue virus type 2 [8]) | selectivity ratio [10] | EC50 (Rift Valley fever virus [11]) | selectivity ratio [12] | EC50 (Zika virus [13]) | CC50 [14] | EC50 (Zika virus [15]) | CC50 [17] | CC50 [18] | EC50 (Yellow fever virus [19]) | EC50 [20] | EC50 (Rift Valley fever virus [21]) | EC50 (Influenza A virus [22]) | CC50 (Huh-7 [23]) | further results
Nc1ncnn2c([C@@H]3N[C@H](CO)[C@@H](O)[C@H]3O)ccc12 | 19 | 10 µM | 10 | 57 | 0.32 µM | 24 µM | 0.38 µM | > 89 | < 0.1 µM | 2.9 | 0.32 µM | 10 µM | 0.38 µM | 4.4 µM | 3 µM | 0.37 µM | 32 µM | < 0.1 µM | 0.42 µM | 2.9 µM | EC50 (Influenza A virus [7]): 0.32 µM; CC50 [9]: 12 µM; selectivity ratio [16]: 77; selectivity ratio [24]: 41; EC50 (dengue virus type 2 [25]): 0.32 µM; EC50 (Influenza A virus [26]): 0.28 µM; CC50 (Huh-7 [27]): 3.2 µM; CC50 (Huh-7 [28]): 3.2 µM; selectivity ratio [29]: > 100; EC50 (Yellow fever virus [30]): 0.5 µM; selectivity ratio [31]: 12; selectivity ratio [32]: 78; CC50 (Huh-7 [33]): > 100 µM; selectivity ratio [34]: 8.6; selectivity ratio [35]: 8.6; CC50 [36]: 6.1 µM; selectivity ratio [37]: 23; CC50 [38]: 8.9 µM; CC50 [39]: 4.4 µM
Nc1ncnc2c([C@@H]3N[C@H](CO)[C@@H](O)[C@H]3O)c[nH]c12 [GALIDESIVIR] | > 8.3 | > 100 µM | > 7.7 | > 28 | > 100 µM | > 100 µM | 16 µM | > 3.7 | 23 µM | > 100 | 12 µM | > 100 µM | 33 µM | > 100 µM | > 100 µM | > 100 µM | > 100 µM | 27 µM | 3.6 µM | > 100 µM | EC50 (dengue virus type 2 [25]): 13 µM; EC50 (Influenza A virus [26]): 3.3 µM; CC50 (Huh-7 [27]): > 100 µM; CC50 (Huh-7 [28]): > 100 µM; selectivity ratio [29]: > 4.3; EC50 (Yellow fever virus [30]): 18 µM; selectivity ratio [31]: > 3; CC50 (Huh-7 [33]): > 100 µM; selectivity ratio [34]: > 3.6; selectivity ratio [35]: > 5.6; CC50 [36]: > 100 µM; selectivity ratio [37]: > 30; CC50 [38]: > 100 µM; CC50 [39]: > 100 µM

— ChEMBL document CHEMBL5257097, “An Isomer of Galidesivir That Potently Inhibits Influenza Viruses and Members of the Bunyavirales Order” (ACS Med Chem Lett, 2023)
